Experimental data as given in paper PMC12858405, “Ideal efficacy photoswitching for chromocontrol of TRPC4/5 channel functions in live tissues” (Nature Chemical Biology, 2026).

Key:
[1] = system: Th+ neurons of Th-GCaMP6f (WT) mice; assay: GCaMP6f Ca2+ imaging of Th+ neurons in arcuate nucleus brain slices with 355 nm photoswitching, Th-GCaMP6f (WT) mice; conditions: for EC50: Mus musculus, Neuron, read-out: EC50 of Z-isomer-induced Ca2+ responses (ΔAUC) in Th+ neurons, WT
Source text: slices through the ARC of mice expressing the Ca2+ indicator GCaMP6f in Th+ neurons (Fig. 4),
we investigated (1) whether Ca2+ responses at endogenous TRPC5 expression levels can be
TRPC5 expression using TRPC5-deficient brain slices, (3) whether a dose dependence could be
detected, and (4) whether there are properties in channel activity that can be distinguished between
concentration-response measurements (Fig. 5d).

[2] = target: T1, mouse TRPC5 (Mus musculus, UniProt Q9QX29); assay: FLIPR Ca2+ influx assay (Fluo-4) with 365/447 nm photoswitching, HEK293 stably expressing mouse TRPC5; type: cell-based; conditions: for Activity on TRPC5 in FLIPR screening: 365/447 nm cycles; for EC50: Z* = mostly-Z PSS under 365 nm LED, Fluo-4-loaded cells, read-out: Agonistic EC50 (365 nm) TRPC5
T1 construct: expressed in transfected cells; host or cells: HEK293 (ATCC CRL 1573), stably transfected, tetracycline-induced
T1 sequence (Q9QX29 1-975): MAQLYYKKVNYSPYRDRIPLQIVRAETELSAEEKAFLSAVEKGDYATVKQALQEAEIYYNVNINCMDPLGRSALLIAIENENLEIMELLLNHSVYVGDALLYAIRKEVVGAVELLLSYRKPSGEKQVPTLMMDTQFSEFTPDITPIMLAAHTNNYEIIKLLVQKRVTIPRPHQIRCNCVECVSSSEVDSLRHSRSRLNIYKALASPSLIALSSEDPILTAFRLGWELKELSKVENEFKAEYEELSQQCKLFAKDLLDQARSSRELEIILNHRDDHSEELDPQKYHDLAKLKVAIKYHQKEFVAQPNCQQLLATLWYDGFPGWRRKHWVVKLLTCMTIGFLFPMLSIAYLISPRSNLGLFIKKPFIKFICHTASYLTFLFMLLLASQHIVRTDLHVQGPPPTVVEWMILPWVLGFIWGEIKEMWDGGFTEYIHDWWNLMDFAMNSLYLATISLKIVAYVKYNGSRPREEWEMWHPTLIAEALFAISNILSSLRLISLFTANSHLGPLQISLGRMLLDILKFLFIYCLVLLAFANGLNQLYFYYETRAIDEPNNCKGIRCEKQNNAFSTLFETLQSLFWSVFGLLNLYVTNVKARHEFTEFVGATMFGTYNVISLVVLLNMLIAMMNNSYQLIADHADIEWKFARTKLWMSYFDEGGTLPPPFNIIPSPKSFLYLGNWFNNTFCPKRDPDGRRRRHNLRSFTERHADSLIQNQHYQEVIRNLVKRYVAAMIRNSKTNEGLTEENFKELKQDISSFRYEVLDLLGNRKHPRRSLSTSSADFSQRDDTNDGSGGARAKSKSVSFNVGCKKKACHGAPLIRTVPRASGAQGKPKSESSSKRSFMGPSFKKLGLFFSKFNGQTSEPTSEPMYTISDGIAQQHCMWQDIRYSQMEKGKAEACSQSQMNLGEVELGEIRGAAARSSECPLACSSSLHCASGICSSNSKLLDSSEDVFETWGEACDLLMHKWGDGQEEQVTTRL
Source text: We initially screened for the photoswitchability of activity in cells using a fluorometric imaging plate reader (FLIPR) calcium flux assay, with HEK293 cells stably expressing mouse TRPC4β or mouse TRPC5. Note, however, that the parallel-throughput FLIPR setup is limited to use fixed light-emitting diodes at 365 nm (good Z) and 447 nm (suboptimal E), which, combined with the slowness of the onset and recovery of the fluorescence readout for calcium, causes the FLIPR results to underestimate the reagents’ true speed, degree and completion of TRPC chromocontrol (shown later). […]
3 Cultured Cell Lines (primarily for Fig. 1 and Fig. 2)
3.1 FLIPR Ca2+ influx assay in cell suspensions.
We initially screened for photoswitchability of activity in cells, using a fluorometric imaging plate reader (FLIPR) calcium flux assay, with human embryonic kidney cell line HEK293 stably transfected to express mouse TRPC4β- or TRPC5-CFP fusion protein (HEKmTRPC4β-CFP / HEKmTRPC5-CFP, HEK293 obtained from ATCC CRL 1573). The FLIPR setup provides high-content data, but it is limited to using LED wavelengths of 365 nm (best-Z) and 447 nm (suboptimal-E), while imaging at 470 nm excitation (Fluo-4 AM as Ca2+ indicator; this imaging light counteracts both PSSs). Therefore, we expected the FLIPR results to under-estimate the true chromocontrol power accessible to the reagents.
Cells were grown to 70%-90% confluency in a 75-cm2 culture flask, trypsinised, washed and resuspended in BSA-containing (0.1%) HBS, and supplemented with 3 µM Fluo-4/AM. Stably TRPC-transfected cells were induced with tetracycline 24 h prior to the experiments.42,43 After incubation at 37°C for 30 min [Fluo-4 loading], cells were again washed, resuspended, and dispensed (40 µl/well) into black pigmented, clear-bottom 384-well plates (Greiner µ-clear). To image the Fluo-4 fluorescence during the application and photoswitching of test compounds, these plates were first mounted to a Tecan Fluent 480 (Tecan, Männedorf, Switzerland) liquid handling device, equipped with a 384-tip multichannel arm and a gripper arm. A custom-made plate-imaging device was used for photoswitching during fluorescence imaging, which features LED-based excitation modules (365 nm and 447 nm used here for photoswitching, and 470 nm used here for Fluo-4 readout) projected onto the bottom of the microwell plate, with a cooled scientific complementary metal oxide sensor (sCMOS) camera (Zyla 5.5, Andor, Belfast, UK) equipped with a Nokton 42.5 mm f/0.95 (Voigtlaender, Fürth, Germany) for detection. The LEDs were controlled with an Arduino device and constant current drivers (1 A for 365 and 470 nm LEDs; 3 A for 447 nm LED); detection was under the control of Micromanager 2.0 software. Compounds were serially diluted and applied to the Fluo-4-loaded cell suspensions inside this custom plate-imaging device, then fluorescence intensities (under 470 nm excitation) were continuously recorded during programmed illuminations e.g. with alternating 365 nm and 447 nm phases.
Concentration-response curves for the Z-isomers (channel activation) were then constructed from the maximal signals during 365 nm phases, after a suitable number of "priming" cycles to allow the system to reach stable performance (Supplementary Fig. 13).
All experiments were conducted as a minimum of 3 independent experiments with each experiment averaging data in technical duplicates. […]
Cellular TRPC5 photoswitching: HEK cell Ca2+ influx photomodulation […]
Supplementary Figure 12. […] All […]
four compounds' profiles are consistent with their being ideal efficacy photoswitches (representative traces from one experiment out of ≥3 independent experiments each run in technical duplicates). […]
log c [nM] log c [nM] log c [nM] log c [nM]
Supplementary Figure 13. Dose-response for Z*-AzPico, Z*-AzPico2, Z*-AzHC, and Z*-AzHC2 on TRPC5 and […]

Activity on TRPC5 in FLIPR screening [2] | EC50 [2] | Effect of E isomer alone on TRPC5 ([2]; 12 pM to […], before 365-nm illumination) | SMILES | Cells with sustained high Ca2+ signal lasting up to 3 min ([1]; 500 nM, 355 nm pulse) | Cells with sustained high Ca2+ signal lasting up to 3 min (count) ([1]; 500 nM, 355 nm pulse) | EC50 [1]
photoswitchable activity | 6.4 nM |  | Cn1c(=O)n(CCCO)c(=O)c2c1nc(Oc1ccc(N=Nc3ccccc3)c(Cl)c1)n2Cc1ccc(Cl)cc1 [AzHC] | 42% | 14 of 33 | 130 ± 100 nM
photoswitchable activity | 4 nM |  | Cn1c(=O)n(CCCO)c(=O)c2c1nc(Oc1ccc(N=Nc3ccccc3)c(OC(F)(F)F)c1)n2Cc1ccc(Cl)cc1 [AzPico] |  | 13 out of 31 | 
 |  | no effect | Cn1c(=O)n(CCCO)c(=O)c2c1nc(Oc1ccc(/N=N/c3ccccc3)c(OC(F)(F)F)c1)n2Cc1ccc(Cl)cc1 [E-AzPico] |  |  | 

SMILES | Activity on TRPC5 in FLIPR screening [2] | EC50 [2] | Effect of E isomer alone on TRPC5 ([2]; 12 pM to […], before 365-nm illumination) | Cells with sustained high Ca2+ signal lasting up to 3 min ([1]; 500 nM, 355 nm pulse) | Cells with sustained high Ca2+ signal lasting up to 3 min (count) ([1]; 500 nM, 355 nm pulse) | EC50 [1]
Cn1c(=O)n(CCCO)c(=O)c2c1nc(Oc1ccc(/N=N\c3ccccc3)c(Cl)c1)n2Cc1ccc(Cl)cc1 [Z*-AzHC] |  | 6.4 nM |  |  |  | 130 ± 100 nM
